Reference: US9770040B2, “Treatment of animal carcasses” (Ecolab USA Inc., priority 1998, dated 2017)

Assays:
[1] = test system: bacterial flora present on prerigor beef samples; test: Working Example #1: total plate count on prerigor beef after spray, with or without steam; assay type: cell-based
Experimental: The objective of working example #1 was to determine if 0.5% and 1.0% lactic acid alone and in combination with Test Formula #1 and/or steam achieved a reduction in the bacterial flora present on prerigor beef samples. An exposure time of 10 minutes was utilized for all applications and testing was performed at 33° C. Sixteen prerigor beef samples were obtained and kept in a cooler until time of testing. Samples were aseptically divided in half. Eight different test treatments were utilized with four replicate pieces per treatment with the exception of the steam +0.5% lactic acid treatment which only had three replicate pieces. Two cores (4.3 cm diameter) were taken from each replicate piece before and after treatment, combined into 99 mL of Phosphate Buffered Dilution water, stomached for 1 minutes and then serially diluted and plated using pour plate technique. Test Products: • 1. Test Formula #1 at 200 ppm Total […] • 2. Test Formula #1 at 200 ppm Total […]+0.5% Lactic Acid • 3. Test Formula #1 at 200 ppm Total […]+1.0% Lactic Acid • 4. 0.5% Lactic Acid • 5. Steam Alone, followed by a sterile water rinse • 6. Steam+Test Formula #1 at 200 ppm Total […], followed by a sterile water rinse • 7. Steam+Test Formula #1 at 200 ppm Total […]+0.5% Lactic Acid, followed by a sterile water rinse • 8. Steam+0.5% Lactic Acid followed by a sterile water rinse Product Application: All product use solutions were applied by a spray application for 10 seconds. This delivered approximately 150 mL of product. An exposure time of 10 minutes was utilized, followed by a 10 second sterile water rinse, if applicable. Neutralizer: 99 mL of Phosphate Buffered Dilution Water Dilutions Plated: 10^0, 10^-1, 10^-2 for Total Plate Count Before • 10^0, 10^-1 for Total Plate Count After Plating Medium: Tryptone Glucose Extract Agar Incubation: 26° C. for 72 hours [table]

[2] = test system: bacterial flora of prerigor beef; test: Working Example #4: total plate count on prerigor beef, high pressure spray, comparison to Lactic Acid; assay type: cell-based; conditions: ~0.5% Lactic Acid, ~230 psi, 30 sec spray, 10-minute exposure
From the text: The objective of the testing was to determine the efficacy of Test Formula #1 at approximately 50, 100 and 200 ppm total peracid with a high pressure application spray at elevated temperatures in comparison to Lactic Acid against the bacterial flora of prerigor beef. Prerigor beef samples were obtained and kept in a cooler at ambient temperature until time of testing. Four different test treatments were utilized with four replicates per treatment. Two cores (4.3 cm diameter) were taken as each replicate from one piece for both before- and after-treatment samples and combined into 99 mL of Letheen Broth. The cores/neutralizer mixtures were stomached for 1 minute and then serially diluted and plated using pour plate technique. Test Product: Test Formula #1 at 50, 100 and 200 ppm total peracid • Lactic Acid (88% concentrate) • (Batch # Si120972, was titrated at 4.76% total peracid) Application: Eight cores (2 cores per replicate) were aseptically removed from each sample before treatment. These were used for the before-treatment samples. The remaining sample was placed onto a clean and sanitary screen. The sample was then sprayed with Test Formula #1 at approximately 50, 100 or 200 ppm total peracid utilizing a 20- or 30-second spray application time. 0.5% Lactic Acid utilized only the 30-second spray application. […]

[3] = test system: Listeria innocua ATCC 33090; test: Working Example #5: inoculated prerigor beef, high-pressure spray; assay type: cell-based; conditions: ˜0.5%-0.75% Lactic Acid; ~220 psi, 30 second spray, ˜120° F., 10 minutes exposure
Experimental: The objective of the testing was to determine the efficacy of Test Formula #1 and Lactic Acid against Listeria innocua ATCC 33090 with a high-pressure application spray at elevated temperatures. Prerigor beef samples were obtained and kept in a cooler at ambient temperature until time of testing. Samples were cut into 13 cm pieces and 2.0 mL of the inoculum (see Test System Preparation below) was spread evenly over the entire surface of the sample. Inoculated samples were then left at room temperature (˜23° C.) for ≧15 minutes. Four replicate samples were taken (two cores per replicate) before treatment. After each spray treatment, a 10-minute exposure time was utilized, and taken four replicate samples were taken (two cores per replicate) and stomached for 1 minute, serially diluted and plated using pour plate technique. Treatments: • 1. Test Formula #1 at 200 ppm total peracid with […], 30 second spray time. • 2. Test Formula #1 at 200 ppm total peracid with ˜150 psi pressure spray, 30 second spray time. • 3. Test Formula #1 at 200 ppm total peracid with ˜100 psi pressure spray, 30 second spray time. • 4. Water Control with ˜220 psi pressure spray, 30-second spray time. • 5. ˜0.5%-0.75% Lactic Acid with ˜220 psi pressure spray, 30-second spray time. • 6. Test Formula #1 at 100 ppm total peracid with ˜220 psi pressure spray, 30 second spray time. • 7. […]

[4] = test system: bacterial flora of prerigor beef; test: Working Example #2: total plate count on prerigor beef, extended spray and exposure times; assay type: cell-based; conditions: 0.5% Lactic Acid, 25 psi, 10 sec spray, 10-minute exposure
From the text: The objective of the testing was to determine the efficacy of various antimicrobial treatments with extended spray and exposure times against the bacterial flora of prerigor beef. Prerigor beef samples were obtained and kept in a cooler at ambient temperature until time of testing. Ten different test treatments were utilized with four replicates per treatment. Two cores (4.3 cm diameter) were taken as each replicate from one piece for both before- and after-treatment samples and combined into 99 mL of Letheen Broth. The cores/neutralizer mixtures were stomached for 1 minute and then serially diluted and plated using pour plate technique. Test Products: • Test Formula #1* at 200 ppm […]=0.42% (4.2 mL were added to 995.8 mL tap water) • Test Formula #1* at 500 ppm […] (10.5 mL were added to 989.5 mL tap water) • 0.5% Lactic Acid • *Test Formula #1, batch # Si120972, was titrated at 4.76% total peracid. Application: Eight cores (2 cores per replicate) were placed onto a clean and sanitary screen. The cores were sprayed with the appropriate test product utilizing a 10- or 30-second spray application time. For each replicate, two cores were removed after a 10-minute exposure time and placed into a stomacher bag containing 99 mL of neutralizer. Neutralizer: 99 mL Letheen Broth Dilutions: 10^0, 10^-1, 10^-2 for Total Plate Count Before • 10^0, 10^-1 for Total Plate Count After Plating Medium: Tryptone Glucose Extract Agar Incubation: 26° C. for 72 hours Calculations: Average CFU/plate=(All eight counts from four replicates/4) • Average CFU/plate×100=Average CFU/100 mL=Y [formula] • Dilution=10, 100, or 1000 • r=2.15 cm • 2=# of cores

[5] = cited from earlier work

| Compound | Avg. Log10 Reduc. ([1]; 0.5% Lactic Acid, 10 s spray, 10 min exposure, 33° C.) | Avg. CFU/100 mL After ([1]; 0.5% Lactic Acid, 10 s spray, 10 min exposure, 33° C., Before 2.7 × 10^4) | Avg. Log10 Reduc. ([1]; Steam + 0.5% Lactic Acid, with sterile water rinse) | Avg. CFU/100 mL After ([1]; Steam + 0.5% Lactic Acid, with sterile water rinse, Before 2.5 × 10^4) | Avg. Log10 Reduc. [2] | Avg. CFU/100 mL After ([2]; Before 8.7 × 10^5) | Avg. CFU/100 mL After [3] | Avg. Log10 Reduc. [3] | Avg. Log10 Reduc. ([4]; 98° F.) | Avg. CFU/100 mL After ([4]; 98° F., Before 1.6 × 10^4) | Avg. Log10 Reduc. ([4]; 120° F.) | Avg. CFU/100 mL After ([4]; 120° F., Before 1.0 × 10^5) | solubility [5] |
| --- | --- | --- | --- | --- | --- | --- | --- | --- | --- | --- | --- | --- | --- |
| CC(O)C(=O)O (stereo not shown) [Lactic Acid, 2-hydroxypropionic acid] | 0.91 Log10 | 5.4 × 10^3 CFU/100 mL | 1.69 Log10 | 9.3 × 10^2 CFU/100 mL | 1.58 Log10 | 2.3 × 10^4 CFU/100 mL | 3.5 × 10^5 CFU/100 mL | 1.63 Log10 | −0.01 Log10 | 1.5 × 10^4 CFU/100 mL | 0.07 Log10 | 8.4 × 10^4 CFU/100 mL | – |
| peroxyacetic acid | – | – | – | – | – | – | – | – | – | – | – | – | freely soluble in water, alcohol, ether, and sulfuric acid |
